ChEMBL document CHEMBL5614419, “Discovery of novel BCL6-Targeting PROTACs with effective antitumor activities against DLBCL in vitro and in vivo” (Eur J Med Chem, 2024)
The source made the active and inactive calls. No cut-off for these calls is given here.

Experiments:
[1] = target: T1, Protein cereblon/B-cell lymphoma 6 protein (Homo sapiens, UniProt Q96SW2+P41182); test: PROTAC activity at CRBN/BCL6 in human SU-DHL-4 cells assessed as reduction in half life BCL6 at 1 uM preincubated with compound for 24 hrs followed by CHX addition and measured after 4 hrs by Western blot analysis; type: cell-based; conditions: time 28.0 hrs
SUD4 [2] = test: Antiproliferative activity against BCL6-dependent human SU-DHL-4 cells assessed as inhibition of cell growth at 10 uM measured after 6 days by MTT assay relative to control; type: functional; conditions: SU-DHL-4, 144 h, time 6 day
[3] = Half life in male Sprague-Dawley rat at 10 mg/kg, ip measured upto 24 hrs by LC-MS/MS analysis; type: ADME, organism-based; conditions: in vivo
[4] = Half life in male Sprague-Dawley rat at 20 mg/kg, po measured upto 24 hrs by LC-MS/MS analysis; type: ADME, organism-based; conditions: in vivo
[5] = MRT (0 to t) in male Sprague-Dawley rat at 20 mg/kg, po measured upto 24 hrs by LC-MS/MS analysis; type: ADME, organism-based; conditions: in vivo
[6] = target: T1, Protein cereblon/B-cell lymphoma 6 protein; test: PROTAC activity at CRBN/BCL6 in BCL6-dependent human SU-DHL-4 cells assessed as induction of BCL6 degradation by measuring degradation rate at 1 uM incubated for 48 hrs by Western blot analysis relative to control; type: cell-based
SUD4 [7] = test: Upregulation of p27 protein level in human SU-DHL-4 cells at 5 uM preincubated for 48 hrs followed by compound elution and measured after 72 hrs by Western blot analysis; type: functional, cell-based
DOHH-2 [8] = test: Antiproliferative activity against BCL6-dependent human DOHH-2 cells assessed as inhibition in cell growth measured after 6 days by MTS assay; conditions: DOHH-2, 144 h
[9] = target: T1, Protein cereblon/B-cell lymphoma 6 protein; test: PROTAC activity at CRBN/BCL6 in human SU-DHL-4 cells assessed as induction of BCL6 degradation incubated for 48 hrs by Western blot analysis; type: cell-based
[10] = MRT (0 to t) in male Sprague-Dawley rat at 10 mg/kg, ip measured upto 24 hrs by LC-MS/MS analysis; type: ADME, organism-based; conditions: in vivo
SUD4 [11] = test: Antiproliferative activity against BCL6-dependent human SU-DHL-4 cells assessed as inhibition in cell growth measured after 6 days by MTT assay; conditions: SU-DHL-4, 144 h
[12] = Toxicity in female nude nu/nu mouse model xenografted with human SU-DHL-4 cells assessed as body weight loss at 10 to 40 mg/kg, ip measured after 21 days; type: organism-based, SUD4; conditions: in vivo, 504 h, dose 10-40 mg/kg, time 21 day
SU-DHL-6 = test: Antiproliferative activity against BCL6-dependent human SU-DHL-6 cells assessed as inhibition in cell growth measured after 6 days by MTT assay; conditions: SU-DHL-6, 144 h
[13] = target: T1, Protein cereblon/B-cell lymphoma 6 protein; test: PROTAC activity at CRBN/BCL6 in human DOHH-2 cells assessed as induction of BCL6 degradation incubated for 48 hrs by Western blot analysis; type: cell-based
DOHH-2 [14] = test: Synergistic antiproliferative activity against human DOHH-2 cells assessed as combination index measured after 6 days in presence of Ibrutinib by MTT assay; type: functional; conditions: time 6 day
SUD4 [15] = test: Upregulation of p21 protein level in human SU-DHL-4 cells incubated for 48 hrs by Western blot analysis; type: functional, cell-based; conditions: dose 0.1-10 µM
[16] = AUC (0 to infinity) in male Sprague-Dawley rat at 10 mg/kg, ip measured upto 24 hrs by LC-MS/MS analysis; type: ADME, organism-based; conditions: in vivo
[17] = target: T1, Protein cereblon/B-cell lymphoma 6 protein; test: In vivo PROTAC activity at CRBN/BCL6 in female nude nu/nu mouse model xenografted with human SU-DHL-4 cells assessed as increase in p27 protein level in tumor at 40 mg/kg, ip measured after 5 hrs of last dose by Western blot analysis; type: functional, organism-based; conditions: SUD4
[18] = AUC (0 to t) in male Sprague-Dawley rat at 10 mg/kg, ip measured upto 24 hrs by LC-MS/MS analysis; type: ADME, organism-based; conditions: in vivo
[19] = AUC (0 to infinity) in male Sprague-Dawley rat at 20 mg/kg, po measured upto 24 hrs by LC-MS/MS analysis; type: ADME, organism-based; conditions: in vivo
SUD4 [20] = test: Upregulation of p27 protein level in human SU-DHL-4 cells at 5 uM by Western blot analysis; type: functional, cell-based; conditions: time 12-72 hrs, TDE = time-dependent effect
[21] = target: T1, Protein cereblon/B-cell lymphoma 6 protein; test: In vivo PROTAC activity at CRBN/BCL6 in female nude nu/nu mouse model xenografted with human SU-DHL-4 cells assessed as downregulation of BCL6 protein level in tumor at 40 mg/kg, ip measured after 5 hrs of last dose by Western blot analysis; type: functional, organism-based; conditions: SUD4
SUD4 [22] = test: Induction of cell cycle arrest in human SU-DHL-4 cells assessed as increase in G1 phase cell population at 10 uM measured after 72 hrs by flow cytometry analysis (reference value: 61.4%); type: functional
DOHH-2 [23] = test: Induction of cell cycle arrest in human DOHH-2 cells assessed as G1 phase arrest at 500 nM in presence of Ibrutinib incubated for 72 hrs by flow cytometry; type: functional, cell-based
[24] = (§1) Cytotoxicity against HEK293T cells assessed as inhibition in cell growth measured after 6 days by MTT assay; type: toxicity, cell-based, HEK-293T; conditions: human, HEK293T cells
HEK-293T = test: as §1; type: toxicity, cell-based; conditions: human, hek-293t, 144 h; time 6 day
SUD4 [25] = test: Antiproliferative activity against BCL6-dependent human SU-DHL-4 cells assessed as inhibition of cell growth at 1 uM measured after 6 days by MTT assay relative to control; type: functional; conditions: SU-DHL-4, 144 h, time 6 day
SUD4 [26] = test: Upregulation of p21 protein level in human SU-DHL-4 cells at 5 uM by Western blot analysis; type: functional, cell-based; conditions: time 12-72 hrs, TDE = time-dependent effect
[27] = Antitumor activity against human SU-DHL-4 cells xenografted in female nude nu/nu mouse assessed as tumor growth inhibition at 40 mg/kg, ip measured after 21 days by microcaliper based analysis relative to control; type: functional, SUD4; conditions: SU-DHL-4, 504 h, time 21 day, read-out: TGI
SUD4 [28] = test: Induction of apoptosis in human SU-DHL-4 cells at 10 uM; type: functional, cell-based
[29] = Resistance index, ratio of IC50 for human DOHH2/Ib cells to IC50 for DOHH2 cells; type: functional
[30] = target: T1, Protein cereblon/B-cell lymphoma 6 protein; test: In vivo PROTAC activity at CRBN/BCL6 in female nude nu/nu mouse model xenografted with human SU-DHL-4 cells assessed as increase in p21 protein level in tumor at 40 mg/kg, ip measured after 5 hrs of last dose by Western blot analysis; type: functional, organism-based; conditions: SUD4
[31] = Tmax in male Sprague-Dawley rat at 10 mg/kg, ip measured upto 24 hrs by LC-MS/MS analysis; type: ADME, organism-based; conditions: in vivo
SUD4 [32] = test: Induction of cell cycle arrest in human SU-DHL-4 cells assessed as accumulation of cells at G1 phase incubated for 72 hrs by flow cytometry analysis; type: functional, cell-based; conditions: dose 0.1-10 µM
SUD4 [33] = test: Upregulation of CDKN1A mRNA level in human SU-DHL-4 cells at 10 uM incubated for 48 hrs by RT-qPCR analysis; type: functional, cell-based
[34] = tested on: Ibrutinib resistant DOHH2 cell; test: Upregulation of p21 protein level in human Ibrutinib resistant DOHH2 cells at 0.1 to 10 uM incubated for 48 hrs by Western blot analysis; type: functional, cell-based; conditions: dose 0.1-10 µM

T1 sequence (Q96SW2 whole entry, looked up, other chains not shown): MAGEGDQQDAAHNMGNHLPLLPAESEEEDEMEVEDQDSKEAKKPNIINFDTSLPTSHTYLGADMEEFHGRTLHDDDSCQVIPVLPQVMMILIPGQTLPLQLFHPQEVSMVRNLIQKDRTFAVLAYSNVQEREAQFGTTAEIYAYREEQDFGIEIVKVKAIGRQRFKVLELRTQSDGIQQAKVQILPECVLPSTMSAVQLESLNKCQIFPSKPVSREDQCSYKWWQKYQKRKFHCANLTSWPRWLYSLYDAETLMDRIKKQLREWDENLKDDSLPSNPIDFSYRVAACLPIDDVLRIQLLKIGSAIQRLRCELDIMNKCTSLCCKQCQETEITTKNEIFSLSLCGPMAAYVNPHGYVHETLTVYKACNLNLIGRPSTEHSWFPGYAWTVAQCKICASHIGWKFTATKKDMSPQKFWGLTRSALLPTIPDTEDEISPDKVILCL

With COc1cc(Nc2nc(N3CCN(CCOCCNc4cccc5c4C(=O)N(C4CCC(=O)NC4=O)C5=O)CC3)ncc2F)ccc1NC(=O)c1ccc(C2=CCCC2)s1 (stereo not drawn) the Activity [1] was “Active”, the inhibition at 10 µM (SUD4 [2]) was 92.6% and the half-life [3] was 2.59 h. The half-life [4] was 1.06 h, the MRT last at 24 h [5] was 2.48 h and the Activity [6] was 81.8%. The Activity (SUD4 [7]) was “Active”, the IC50 (DOHH-2 [8]) was 56.2 nM and the Activity [9] was “Dose-Dependent Effect”. The DC50 [9] was 676 nM, the MRT last at 24 h [10] was 5.3 h and the IC50 (SUD4 [11]) was 399 nM. The Activity [12] was “Non-Toxic”, the IC50 (SU-DHL-6) was 451 nM and the Activity [13] was “Dose-Dependent Effect”. For the same molecule, the DC50 [13] was 558 nM, the CI (DOHH-2 [14]) was 0.2 and the Activity (SUD4 [15]) was “Dose-Dependent Effect”. The AUC(0-inf) [16] was 33900 ng·h/mL, the Activity [17] was “Active” and the AUC(0-t) at 24 h [18] was 33800 ng·h/mL. For the same molecule, the AUC(0-inf) [19] was 2330 ng·h/mL, the Activity (SUD4 [20]) was “Tde” and the Activity [21] was “Active”. For the same molecule, the Activity (SUD4 [22]) was 93.3%, the Activity (DOHH-2 [23]) was “Active” and the IC50 at 6 days [24] was > 10000 nM. The Activity (HEK-293T) was “Dose-Dependent Effect”, the inhibition at 1 µM (SUD4 [25]) was 66.1% and the Activity (SUD4 [26]) was “Tde”. The inhibition in vivo at 40 mg/kg [27] was 71.8%, the Activity (SUD4 [28]) was “inactive” and the “Ratio IC50” value [29] was 31.7. The Activity [30] was “Active”, the Tmax [31] was 2.67 h and the Activity (SUD4 [32]) was “Dose-Dependent Effect”. The Activity (SUD4 [33]) was “Active” and the Activity [34] was “Active”.
